According to patent US5627211A, “Cyclohexyl amine derivatives and their use as tachykinin antagonists” (Merck Sharp & Dohme Limited, priority 1992, dated 1997):
Like-named read-outs stand apart in the source and are kept apart here.

Biological target: human NK1R (Homo sapiens, UniProt P25103)
Assay: human NK1R assay: displacement of radiolabelled substance P binding
Procedure: The substance P antagonizing activity of the compounds described herein was evaluated using the human NK1R assay described in published European patent application no. 0 528 495. The method essentially involves determining the concentration of the test compound required to reduce by 50% the amount of radiolabelled substance P binding to human NK1R, thereby affording an IC50 value for the test compound.

[1] = radiolabelled substance P, assay as in EP 0 528 495, read-out: IC50 (concentration of the test compound required to reduce by 50% the amount of radiolabelled substance P binding to human NK1R)

Chain of human NK1R (P25103 whole entry): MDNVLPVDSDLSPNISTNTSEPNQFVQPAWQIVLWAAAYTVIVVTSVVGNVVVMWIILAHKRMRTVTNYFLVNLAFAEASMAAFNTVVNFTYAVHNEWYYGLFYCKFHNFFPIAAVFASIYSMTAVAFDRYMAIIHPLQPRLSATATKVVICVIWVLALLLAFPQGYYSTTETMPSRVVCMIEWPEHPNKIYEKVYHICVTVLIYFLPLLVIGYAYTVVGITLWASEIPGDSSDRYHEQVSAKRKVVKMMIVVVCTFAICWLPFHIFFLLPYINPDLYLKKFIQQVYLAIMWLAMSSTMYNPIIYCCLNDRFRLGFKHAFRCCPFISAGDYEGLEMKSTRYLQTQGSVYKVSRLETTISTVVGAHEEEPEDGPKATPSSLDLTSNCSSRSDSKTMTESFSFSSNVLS

Row | SMILES | IC50 [nM] | IC50 [1] [nM]
1 | Cc1cc(C)cc(COC2CCCCC2(N)c2ccccc2)c1 (stereo not drawn) [Example 1, 1-(3,5-Dimethylbenzyloxy)-2-amino-2-phenylcyclohexane] | 100 | 
2 | NC1(c2ccccc2)CCCCC1OCc1cc(C(F)(F)F)cc(C(F)(F)F)c1 (stereo not drawn) [Example 5, 1-(Bis-3,5-trifluoromethylbenzyoxy)-2-amino-2-phenylcyclohexane] |  | 350
3 | NC(=O)CNC1(c2ccccc2)CCCCC1OCc1cc(C(F)(F)F)cc(C(F)(F)F)c1 (stereo not drawn) [Example 6, 1-(Bis-3,5-trifluoromethylbenzyoxy)-2-(carboxamido)methylamino-2-phenylcyclohexane] |  | 100
